According to patent publication US9181189B2, “Lipogenesis inhibitor compounds” (PIERRE FABRE DERMO-COSMETIQUE, priority 2011, dated 2015):

Tests used:
[1] = tested on: differentiated sebocytes (Tel-E6E7 line); assay: Production of intracellular lipids by differentiated sebocytes (Nile Red / Adipored quantitation); assay type: cell-based, human; conditions: for production of lipids by the sebocytes: Tel-E6E7 line differentiated 7 days in the presence of testosterone and other supplements, FIG. 1; for inhibitor effect on lipogenesis directly induced by DHT: Tel-E6E7 line differentiated in the presence of DHT and other supplements, FIG. 2
Protocol: The Tel-E6E7 line (courtesy of Dr. Stephen Lyle, University of Massachusetts, USA) is a human epithelial line derived from stem cells of the hair follicle bulb.
Differentiation into sebocytes of the Tel-E6E7 line was conducted under the conditions described by S. Lyle. The cells were seeded in 24-well plates at a density of 25 000 cells/cm^2 in DME medium supplemented with 46% HamF12 medium, 6% foetal calf serum (FCII, Hyclone), 2% human serum and 10 nM EGF. Two days after seeding, the differentiation of the cells into sebocytes was induced by adding the following supplements to the culture medium: 0.1 μM testosterone (or DHT (0.1 μM)), 1 μM Troglitazone, 100 μM WyA4643 and 10 nM Insulin. The derivatives to be tested were added at the same time. Sebocyte differentiation was continued for 7 days. The culture medium and the derivatives to be tested were renewed every 2-3 days. The production of intracellular lipids was measured by quantitation of the Nile Red marker (Adipored kit, Lonza) and following the manufacturer's instructions. The amount of measured fluorescence (Relative Fluorescence Units) is proportional to the quantity of accumulated neutral intracellular lipids. All tested conditions were performed in duplicate and repeated three times.
The inventors studied the variations in lipid levels produced by the sebocytes after a differentiation time of 7 days in the presence of testosterone treated with the derivatives of the present invention.

[2] = target: T1, type-1 5-α-reductase (Homo sapiens, UniProt P18405); conditions: fibroblast cultures; cited from earlier work
T1 construct: endogenous in cells
T1 sequence (P18405 1-259): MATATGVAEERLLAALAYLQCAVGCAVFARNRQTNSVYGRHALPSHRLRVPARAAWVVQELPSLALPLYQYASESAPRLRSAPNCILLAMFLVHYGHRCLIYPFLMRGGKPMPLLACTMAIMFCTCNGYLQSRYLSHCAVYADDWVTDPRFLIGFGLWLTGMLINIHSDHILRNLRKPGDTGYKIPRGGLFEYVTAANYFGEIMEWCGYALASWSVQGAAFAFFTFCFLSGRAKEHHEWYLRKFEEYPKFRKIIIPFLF

Compound: CCCCCCCCCCCC(=O)OCC(O)COC(=O)C1CCCNC1 (centres unmarked) [3-(dodecanoyloxy)-2-hydroxypropyl piperidine-3-carboxylate]
- production of lipids by the sebocytes ([1]; 10 μM): significant decrease

Compound: O=C(O)c1cccnc1 [nicotinic acid]
- inhibitor effect on lipogenesis directly induced by DHT [1]: do not show any inhibitor effect

Compound: CCCCCCCCCCCC(=O)OCC(O)COC(=O)c1cccnc1 (centres unmarked) [glyceryl laurate nicotinate, 3-(dodecanoyloxy)-2-hydroxypropyl nicotinate]
- production of lipids by the sebocytes ([1]; 5 μM): decreases most significantly
- production of lipids by the sebocytes ([1]; 10 μM): decreases most significantly

Compound: O=C(O)C1CCCNC1 (centres unmarked) [nipecotic acid]
- inhibitor effect on lipogenesis directly induced by DHT [1]: do not show any inhibitor effect

Compound: CCCCCCCCCCCC(=O)OCC(O)CO (centres unmarked) [glyceryl laurate, 2,3-dihydroxypropyl dodecanoate]
- inhibiting effect on type-1 5-α-reductase [2]: inhibiting effect
- production of lipids by the sebocytes ([1]; 5 μM): does not reach the significance threshold
- production of lipids by the sebocytes ([1]; 10 μM): does not reach the significance threshold
